Data published in the NIST ThermoML archive (doi:10.1021/je800316b).
± gives the expanded uncertainty stated by the source.

Conditions: Liquid

CCn1cc[n+](CC)c1.O=S(=O)([N-]S(=O)(=O)C(F)(F)F)C(F)(F)F [1,3-diethylimidazolium bis[(trifluoromethyl)sulfonyl]imide]
mass density [kg/m3]
Conditions	100 kPa	2500 kPa	5000 kPa	7500 kPa	10000 kPa	15000 kPa	20000 kPa	25000 kPa	30000 kPa	35000 kPa
293.15 K	1469.2 ± 2.8	1471.1 ± 3	1473.1 ± 3.3	1475 ± 3.6	1476.9 ± 3.9	1480.8 ± 4.5	1484.2 ± 5.2	1487.9 ± 6	1491.5 ± 6.8	1495.2 ± 7.6
298.15 K	1463.2 ± 2.8	1465.5 ± 3	1467.6 ± 3.3	1469.5 ± 3.6	1471.4 ± 3.8	1475.3 ± 4.5	1479 ± 5.1	1482.5 ± 5.9	1486.1 ± 6.7	1489.5 ± 7.5
303.15 K	1457.7 ± 2.8	1460.1 ± 3	1462.1 ± 3.3	1463.9 ± 3.5	1466.1 ± 3.8	1469.8 ± 4.4	1473.6 ± 5.1	1477.1 ± 5.9	1480.9 ± 6.6	1484.3 ± 7.4
313.15 K	1447.3 ± 2.7	1449.6 ± 3	1451.6 ± 3.2	1453.7 ± 3.5	1455.8 ± 3.8	1459.7 ± 4.3	1463.5 ± 5	1467.2 ± 5.7	1470.9 ± 6.5	1474.6 ± 7.3
333.15 K	1425.7 ± 2.7	1428.2 ± 2.9	1430.4 ± 3.1	1432.6 ± 3.4	1434.8 ± 3.7	1439.1 ± 4.2	1443.2 ± 4.8	1447.2 ± 5.5	1450.9 ± 6.3	1454.8 ± 7
353.15 K	1404.5 ± 2.7	1407.5 ± 2.8	1409.9 ± 3.1	1412.2 ± 3.3	1414.5 ± 3.6	1419 ± 4.1	1423.4 ± 4.6	1427.5 ± 5.3	1431.6 ± 6	1435.6 ± 6.7
373.15 K	1384.1 ± 2.6	1386.9 ± 2.8	1389.5 ± 3	1391.9 ± 3.2	1394.4 ± 3.5	1399.1 ± 4	1403.7 ± 4.5	1408.1 ± 5.1	1412.4 ± 5.8	1416.7 ± 6.5
393.15 K	1364.2 ± 2.6	1367.2 ± 2.7	1369.9 ± 2.9	1372.5 ± 3.1	1375.1 ± 3.4	1380.2 ± 3.8	1384.9 ± 4.3	1389.6 ± 4.9	1394.3 ± 5.5	1398.6 ± 6.2

CCCCCCCCCCn1cc[n+](C)c1.O=S(=O)([N-]S(=O)(=O)C(F)(F)F)C(F)(F)F
mass density [kg/m3]
Conditions	100 kPa	2500 kPa	5000 kPa	7500 kPa	10000 kPa	15000 kPa	20000 kPa	25000 kPa	30000 kPa	35000 kPa
293.15 K	1282.4 ± 2.4	1285.6 ± 2.5	1287.4 ± 2.7	1289.3 ± 2.8	1291.1 ± 3	1294.6 ± 3.3	1298.1 ± 3.7	1301.4 ± 4	1304.7 ± 4.5	1308 ± 4.9
298.15 K	1278 ± 2.4	1280.8 ± 2.5	1282.7 ± 2.6	1284.6 ± 2.8	1286.4 ± 2.9	1290 ± 3.3	1293.5 ± 3.6	1297 ± 4	1300.3 ± 4.4	1303.6 ± 4.8
303.15 K	1273.6 ± 2.4	1276.4 ± 2.5	1278.3 ± 2.6	1280.3 ± 2.8	1282.1 ± 2.9	1285.8 ± 3.2	1289.4 ± 3.6	1292.9 ± 4	1296.3 ± 4.4	1299.6 ± 4.8
313.15 K	1265.3 ± 2.4	1267.3 ± 2.5	1269.3 ± 2.6	1271.3 ± 2.7	1273.2 ± 2.9	1277 ± 3.2	1280.7 ± 3.5	1284.2 ± 3.9	1287.7 ± 4.3	1291.1 ± 4.7
333.15 K	1245.5 ± 2.3	1247.7 ± 2.4	1249.8 ± 2.5	1251.9 ± 2.7	1254 ± 2.8	1258 ± 3.1	1261.9 ± 3.4	1265.7 ± 3.7	1269.4 ± 4.1	1273 ± 4.5
353.15 K	1228.6 ± 2.3	1230.9 ± 2.4	1233.2 ± 2.5	1235.5 ± 2.6	1237.6 ± 2.7	1242 ± 3	1246.2 ± 3.3	1250.2 ± 3.6	1254.1 ± 3.9	1257.9 ± 4.3
373.15 K	1209.6 ± 2.3	1212.4 ± 2.4	1214.8 ± 2.4	1217.3 ± 2.5	1219.6 ± 2.7	1224.2 ± 2.9	1228.6 ± 3.2	1232.9 ± 3.5	1237 ± 3.8	1241.1 ± 4.1
393.15 K	1191.8 ± 2.3	1195.8 ± 2.3	1198.3 ± 2.4	1200.9 ± 2.5	1203.4 ± 2.6	1208.2 ± 2.8	1212.8 ± 3.1	1217.3 ± 3.3	1221.7 ± 3.6	1225.9 ± 3.9

CCOS(=O)(=O)[O-].CCn1cc[n+](C)c1 [1-ethyl-3-methylimidazolium ethyl sulfate]
mass density [kg/m3]
Conditions	100 kPa	2500 kPa	5000 kPa	7500 kPa	10000 kPa	15000 kPa	20000 kPa	25000 kPa	30000 kPa	35000 kPa
293.15 K	1246.9 ± 2.3	1249 ± 2.4	1250.2 ± 2.5	1251.3 ± 2.7	1252.3 ± 2.8	1254.3 ± 3.1	1256.5 ± 3.4	1258.5 ± 3.7	1260.5 ± 4	1262.4 ± 4.3
298.15 K	1244.3 ± 2.3	1245.2 ± 2.4	1246.3 ± 2.5	1247.4 ± 2.6	1248.4 ± 2.8	1250.6 ± 3	1252.7 ± 3.3	1254.8 ± 3.6	1256.6 ± 4	1258.7 ± 4.3
303.15 K	1240.8 ± 2.3	1241.6 ± 2.4	1242.7 ± 2.5	1243.8 ± 2.6	1244.9 ± 2.8	1247 ± 3	1249.1 ± 3.3	1251.1 ± 3.6	1253.2 ± 3.9	1255.2 ± 4.3
313.15 K	1233.1 ± 2.3	1234 ± 2.4	1235.1 ± 2.5	1236.2 ± 2.6	1237.3 ± 2.7	1239.5 ± 3	1241.6 ± 3.2	1243.7 ± 3.5	1245.8 ± 3.8	1247.9 ± 4.2
333.15 K	1218.3 ± 2.3	1219.2 ± 2.4	1220.4 ± 2.5	1221.6 ± 2.6	1222.7 ± 2.7	1225 ± 2.9	1227.2 ± 3.1	1229.3 ± 3.4	1231.5 ± 3.7	1233.6 ± 4
353.15 K	1204.2 ± 2.3	1205.3 ± 2.3	1206.6 ± 2.4	1207.8 ± 2.5	1209 ± 2.6	1211.4 ± 2.8	1213.8 ± 3.1	1216.1 ± 3.3	1218.4 ± 3.6	1220.6 ± 3.9
373.15 K	1190.1 ± 2.3	1191.3 ± 2.3	1192.6 ± 2.4	1193.9 ± 2.5	1195.2 ± 2.6	1197.7 ± 2.8	1200.2 ± 3	1202.6 ± 3.2	1204.9 ± 3.5	1207.3 ± 3.7
393.15 K	1176.6 ± 2.2	1178 ± 2.3	1179.3 ± 2.4	1180.7 ± 2.4	1182 ± 2.5	1184.6 ± 2.7	1187.2 ± 2.9	1189.7 ± 3.1	1192.2 ± 3.3	1194.6 ± 3.6

CCn1cc[n+](C)c1.COS(=O)(=O)[O-] [1-ethyl-3-methylimidazolium methylsulfate]
mass density [kg/m3]
Conditions	100 kPa	2500 kPa	5000 kPa	7500 kPa	10000 kPa	15000 kPa	20000 kPa	25000 kPa	30000 kPa	35000 kPa
293.15 K	1292.1 ± 2.4	1293 ± 2.5	1294 ± 2.7	1295 ± 2.8	1296 ± 3	1298 ± 3.3	1299.9 ± 3.7	1301.8 ± 4	1303.7 ± 4.4	1305.6 ± 4.9
298.15 K	1288 ± 2.4	1289.1 ± 2.5	1290.1 ± 2.7	1291.1 ± 2.8	1292.1 ± 3	1294.1 ± 3.3	1296.1 ± 3.6	1298 ± 4	1300 ± 4.4	1301.9 ± 4.8
303.15 K	1283.3 ± 2.4	1284.3 ± 2.5	1285.4 ± 2.6	1286.4 ± 2.8	1287.4 ± 2.9	1289.5 ± 3.3	1291.4 ± 3.6	1293.4 ± 4	1295.3 ± 4.4	1297.3 ± 4.8
313.15 K	1276.6 ± 2.4	1277.8 ± 2.5	1278.9 ± 2.6	1279.9 ± 2.8	1281 ± 2.9	1283 ± 3.2	1285.1 ± 3.6	1287.1 ± 3.9	1289.1 ± 4.3	1291.1 ± 4.7
333.15 K	1260.9 ± 2.4	1262.3 ± 2.5	1263.4 ± 2.6	1264.5 ± 2.7	1265.6 ± 2.8	1267.8 ± 3.1	1269.9 ± 3.4	1272 ± 3.8	1274 ± 4.1	1276.1 ± 4.5
353.15 K	1245.5 ± 2.3	1247.5 ± 2.4	1248.7 ± 2.5	1249.9 ± 2.7	1251.1 ± 2.8	1253.4 ± 3.1	1255.6 ± 3.3	1257.8 ± 3.7	1260 ± 4	1262.2 ± 4.3
373.15 K	1231.4 ± 2.3	1232.8 ± 2.4	1234 ± 2.5	1235.2 ± 2.6	1236.4 ± 2.7	1238.8 ± 3	1241.2 ± 3.2	1243.5 ± 3.5	1245.7 ± 3.9	1248 ± 4.2
393.15 K	1218.1 ± 2.3	1219.2 ± 2.4	1220.5 ± 2.5	1221.8 ± 2.6	1223.1 ± 2.7	1225.5 ± 2.9	1227.9 ± 3.2	1230.3 ± 3.4	1232.6 ± 3.7	1234.9 ± 4
